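In this assay, cells in 96-well plates receive the compound at five concentrations for 48 hours. Endpoints are linearly interpolated between the surrounding concentrations. TGI denotes the concentration required for complete inhibition of growth.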
How the values were obtained:
Assay in all cases: NCI tumour cell line growth inhibition, 48 h
BT-549 breast = tested on: BT-549 breast
COLO 205 colon = tested on: COLO 205 colon
SNB-19 CNS = tested on: SNB-19 CNS
A498 renal = tested on: A498 renal
OVCAR-3 ovarian = tested on: OVCAR-3 ovarian
MCF7 breast = tested on: MCF7 breast
MDA-MB-231 breast = tested on: MDA-MB-231 breast
SN12C renal = tested on: SN12C renal
786-0 renal = tested on: 786-0 renal
MDA-MB-435 = tested on: MDA-MB-435
HOP-92 NSCLC = tested on: HOP-92 NSCLC
PC-3 prostate = tested on: PC-3 prostate
OVCAR-4 ovarian = tested on: OVCAR-4 ovarian
OVCAR-5 ovarian = tested on: OVCAR-5 ovarian
HT29 colon = tested on: HT29 colon
NCI-H522 lung = tested on: NCI-H522 lung
SK-OV-3 ovarian = tested on: SK-OV-3 ovarian
SK-MEL-2 melanoma = tested on: SK-MEL-2 melanoma
SK-MEL-28 melanoma = tested on: SK-MEL-28 melanoma
NCI/ADR-RES ovarian = tested on: NCI/ADR-RES ovarian
HOP-62 NSCLC = tested on: HOP-62 NSCLC
MOLT-4 leukemia = tested on: MOLT-4 leukemia
MALME-3M melanoma = tested on: MALME-3M melanoma
SF-268 CNS = tested on: SF-268 CNS
A549 NSCLC = tested on: A549 NSCLC
UACC-62 melanoma = tested on: UACC-62 melanoma
SR leukemia = tested on: SR leukemia
UACC-257 melanoma = tested on: UACC-257 melanoma
IGROV1 ovarian = tested on: IGROV1 ovarian
EKVX NSCLC = tested on: EKVX NSCLC
NCI-H226 lung = tested on: NCI-H226 lung
HCT-116 colon = tested on: HCT-116 colon
HS 578T breast = tested on: HS 578T breast
M14 melanoma = tested on: M14 melanoma
OVCAR-8 ovarian = tested on: OVCAR-8 ovarian
RPMI-8226 leukemia = tested on: RPMI-8226 leukemia
LOX IMVI melanoma = tested on: LOX IMVI melanoma
NCI-H23 lung = tested on: NCI-H23 lung
CCRF-CEM leukemia = tested on: CCRF-CEM leukemia
ACHN renal = tested on: ACHN renal
KM12 colon = tested on: KM12 colon
UO-31 renal = tested on: UO-31 renal
U251 CNS = tested on: U251 CNS
CAKI-1 renal = tested on: CAKI-1 renal
HCT-15 colon = tested on: HCT-15 colon
RXF 393 renal = tested on: RXF 393 renal
HL-60(TB) leukemia = tested on: HL-60(TB) leukemia
SK-MEL-5 melanoma = tested on: SK-MEL-5 melanoma
TK-10 renal = tested on: TK-10 renal
SF-295 CNS = tested on: SF-295 CNS
NCI-H460 lung = tested on: NCI-H460 lung
MDA-N = tested on: MDA-N
HCC-2998 colon = tested on: HCC-2998 colon
SW-620 colon = tested on: SW-620 colon
DU-145 prostate = tested on: DU-145 prostate
SF-539 CNS = tested on: SF-539 CNS
T-47D breast = tested on: T-47D breast
SNB-75 CNS = tested on: SNB-75 CNS
K-562 leukemia = tested on: K-562 leukemia

O=C1CCCC2C3CC(CN12)C1CCCCN1C3 (configuration not stated)
TGI (BT-549 breast): > 100 µM
TGI (COLO 205 colon): > 100 µM
TGI (SNB-19 CNS): > 100 µM
TGI (A498 renal): > 100 µM
TGI (OVCAR-3 ovarian): > 100 µM
TGI (MCF7 breast): > 100 µM
TGI (MDA-MB-231 breast): > 100 µM
TGI (SN12C renal): > 100 µM
TGI (786-0 renal): > 100 µM
TGI (MDA-MB-435): > 100 µM
TGI (HOP-92 NSCLC): > 100 µM
TGI (PC-3 prostate): > 100 µM
TGI (OVCAR-4 ovarian): > 100 µM
TGI (OVCAR-5 ovarian): > 100 µM
TGI (HT29 colon): > 100 µM
TGI (NCI-H522 lung): > 100 µM
TGI (SK-OV-3 ovarian): > 100 µM
TGI (SK-MEL-2 melanoma): > 100 µM
TGI (SK-MEL-28 melanoma): > 100 µM
TGI (NCI/ADR-RES ovarian): > 100 µM
TGI (HOP-62 NSCLC): > 100 µM
TGI (MOLT-4 leukemia): > 100 µM
TGI (MALME-3M melanoma): > 100 µM
TGI (SF-268 CNS): > 100 µM
TGI (A549 NSCLC): > 100 µM
TGI (UACC-62 melanoma): > 100 µM
TGI (SR leukemia): > 100 µM
TGI (UACC-257 melanoma): > 100 µM
TGI (IGROV1 ovarian): > 100 µM
TGI (EKVX NSCLC): > 100 µM
TGI (NCI-H226 lung): > 100 µM
TGI (HCT-116 colon): > 100 µM
TGI (HS 578T breast): > 100 µM
TGI (M14 melanoma): > 100 µM
TGI (OVCAR-8 ovarian): > 100 µM
TGI (RPMI-8226 leukemia): > 100 µM
TGI (LOX IMVI melanoma): > 100 µM
TGI (NCI-H23 lung): > 100 µM
TGI (CCRF-CEM leukemia): > 100 µM
TGI (ACHN renal): > 100 µM
TGI (KM12 colon): > 100 µM
TGI (UO-31 renal): > 100 µM
TGI (U251 CNS): > 100 µM
TGI (CAKI-1 renal): > 100 µM
TGI (HCT-15 colon): > 100 µM
TGI (RXF 393 renal): > 100 µM
TGI (HL-60(TB) leukemia): > 100 µM
TGI (SK-MEL-5 melanoma): > 100 µM
TGI (TK-10 renal): > 100 µM
TGI (SF-295 CNS): > 100 µM
TGI (NCI-H460 lung): > 100 µM
TGI (MDA-N): > 100 µM
TGI (HCC-2998 colon): > 100 µM
TGI (SW-620 colon): > 100 µM
TGI (DU-145 prostate): > 100 µM
TGI (SF-539 CNS): > 100 µM
TGI (T-47D breast): > 100 µM

SC1CCCN(Cc2ccccc2)C1 (configuration not stated)
TGI (BT-549 breast): > 100 µM
TGI (COLO 205 colon): 33.7 µM
TGI (SNB-19 CNS): > 100 µM
TGI (A498 renal): > 100 µM
TGI (OVCAR-3 ovarian): > 100 µM
TGI (MCF7 breast): 39.4 µM
TGI (MDA-MB-231 breast): > 100 µM
TGI (SN12C renal): > 100 µM
TGI (786-0 renal): > 100 µM
TGI (MDA-MB-435): > 100 µM
TGI (HOP-92 NSCLC): > 100 µM
TGI (PC-3 prostate): > 100 µM
TGI (OVCAR-4 ovarian): > 100 µM
TGI (OVCAR-5 ovarian): > 100 µM
TGI (HT29 colon): 45.8 µM
TGI (NCI-H522 lung): > 100 µM
TGI (SK-OV-3 ovarian): > 100 µM
TGI (SK-MEL-2 melanoma): > 100 µM
TGI (SK-MEL-28 melanoma): > 100 µM
TGI (NCI/ADR-RES ovarian): > 100 µM
TGI (HOP-62 NSCLC): > 100 µM
TGI (MOLT-4 leukemia): 78.2 µM
TGI (SF-268 CNS): > 100 µM
TGI (A549 NSCLC): > 100 µM
TGI (SNB-75 CNS): > 100 µM
TGI (UACC-62 melanoma): > 100 µM
TGI (SR leukemia): 71.5 µM
TGI (UACC-257 melanoma): > 100 µM
TGI (IGROV1 ovarian): > 100 µM
TGI (EKVX NSCLC): > 100 µM
TGI (NCI-H226 lung): > 100 µM
TGI (HCT-116 colon): > 100 µM
TGI (HS 578T breast): > 100 µM
TGI (M14 melanoma): 36.9 µM
TGI (OVCAR-8 ovarian): > 100 µM
TGI (RPMI-8226 leukemia): 46.6 µM
TGI (LOX IMVI melanoma): 34.7 µM
TGI (NCI-H23 lung): 81.5 µM
TGI (ACHN renal): > 100 µM
TGI (KM12 colon): > 100 µM
TGI (UO-31 renal): > 100 µM
TGI (U251 CNS): > 100 µM
TGI (K-562 leukemia): 60.6 µM
TGI (CAKI-1 renal): > 100 µM
TGI (HCT-15 colon): > 100 µM
TGI (RXF 393 renal): > 100 µM
TGI (HL-60(TB) leukemia): > 100 µM
TGI (SK-MEL-5 melanoma): 35.4 µM
TGI (TK-10 renal): > 100 µM
TGI (SF-295 CNS): > 100 µM
TGI (NCI-H460 lung): 64.7 µM
TGI (MDA-N): > 100 µM
TGI (HCC-2998 colon): 31.4 µM
TGI (SW-620 colon): 72.6 µM
TGI (DU-145 prostate): > 100 µM
TGI (SF-539 CNS): > 100 µM
TGI (T-47D breast): 94.1 µM

CC(=O)OCCOc1cc2c([nH]c3ccccc32)c(C)c2cccc1-2
TGI (BT-549 breast): 8.22 µM
TGI (COLO 205 colon): 3.22 µM
TGI (SNB-19 CNS): 8.97 µM
TGI (A498 renal): 26.5 µM
TGI (OVCAR-3 ovarian): 4.97 µM
TGI (MCF7 breast): 15.2 µM
TGI (MDA-MB-231 breast): 3.38 µM
TGI (SN12C renal): 10.9 µM
TGI (786-0 renal): 11 µM
TGI (MDA-MB-435): 5.6 µM
TGI (HOP-92 NSCLC): 5.32 µM
TGI (PC-3 prostate): 3.68 µM
TGI (OVCAR-4 ovarian): 4 µM
TGI (OVCAR-5 ovarian): 9.11 µM
TGI (HT29 colon): 21.6 µM
TGI (NCI-H522 lung): 4.29 µM
TGI (SK-OV-3 ovarian): 18.5 µM
TGI (SK-MEL-2 melanoma): 4.96 µM
TGI (SK-MEL-28 melanoma): 7.57 µM
TGI (NCI/ADR-RES ovarian): > 100 µM
TGI (HOP-62 NSCLC): 18.5 µM
TGI (MOLT-4 leukemia): > 100 µM
TGI (MALME-3M melanoma): 5.64 µM
TGI (SF-268 CNS): 7.28 µM
TGI (A549 NSCLC): > 32.2 µM
TGI (SNB-75 CNS): 3.51 µM
TGI (UACC-62 melanoma): 6.05 µM
TGI (SR leukemia): > 33.3 µM
TGI (UACC-257 melanoma): 3.74 µM
TGI (IGROV1 ovarian): 4.84 µM
TGI (EKVX NSCLC): 5.17 µM
TGI (NCI-H226 lung): 25 µM
TGI (HCT-116 colon): 13.1 µM
TGI (HS 578T breast): > 100 µM
TGI (M14 melanoma): 6.76 µM
TGI (OVCAR-8 ovarian): 7.68 µM
TGI (RPMI-8226 leukemia): > 26.4 µM
TGI (LOX IMVI melanoma): 6.57 µM
TGI (NCI-H23 lung): 5.17 µM
TGI (CCRF-CEM leukemia): > 30 µM
TGI (ACHN renal): 3.35 µM
TGI (KM12 colon): 10.3 µM
TGI (UO-31 renal): 3.34 µM
TGI (U251 CNS): 3.16 µM
TGI (K-562 leukemia): > 100 µM
TGI (CAKI-1 renal): 6.14 µM
TGI (HCT-15 colon): 10.3 µM
TGI (RXF 393 renal): 4.4 µM
TGI (HL-60(TB) leukemia): 12.9 µM
TGI (SK-MEL-5 melanoma): 9.79 µM
TGI (TK-10 renal): 5.4 µM
TGI (SF-295 CNS): 15.2 µM
TGI (NCI-H460 lung): 7.6 µM
TGI (MDA-N): 11 µM
TGI (SW-620 colon): > 24.9 µM
TGI (DU-145 prostate): 15.8 µM
TGI (SF-539 CNS): 3.62 µM
TGI (T-47D breast): 5.57 µM

— PubChem BioAssay (NCI)
